According to US8398959B2, “Compositions and methods for imparting a sunless tan with functionalized adjuvants” (Conopco, Inc., priority 2010, dated 2013):
“Also recorded” adds a separate entry of the source.

What was measured:
[1] = Enhancement activity of adjuvant in DHA composition on artificial skin (VitroSkin), color by colorimeter; conditions: for color enhancement activity on artificial skin (in words): adjuvant 0.5-2 wt.% in composition with DHA; for color quality (delta a*/delta b*, visual examination) in words: composition with DHA on artificial skin
Description: General procedure for in vitro testing: DHA, 2.5 weight percent, and 0.5 to 2.0 weight percent adjuvant were formulated into the base (as described in Table 1). About 20 mg of resulting composition was applied to VitroSkin® made available from IMS Company and applied in a circular pattern having a diameter around 2.4 cm. The artificial skin was pre-hydrated under 50% RH for 24 hours before use, and the skin was kept at a temperature of 35° C. under constant relative humidity (RH, 50%). Color development was evaluated with a colorimeter as defined below.
Enhancement activity of pyrrole-2-carboxylic acid was carried out on artificial skin when formulated in a ready-to-use composition with ingredients as described in Table 4 and color was detected and assessed with a colorimeter.

[2] = Enhancement activity of adjuvant in DHA/glycine solution, color change by colorimeter; conditions: adjuvant 0.5-2 wt.% in solution with DHA and glycine
From the text: A control solution was made as follows: Mixing vials were charged with 2.5 weight percent glycine, 2.5 percent by weight DHA and 0.2 M citric/citrate buffer solution to produce the desired control solution, pH 5.6. The balance of the control solutions was water. Compositions consistent with the invention were made as follows: about 0.5 to 2.0 weight percent adjuvant, 2.5 weight percent DHA and 2.5 weight percent glycine were combined, resulting in compositions consistent with this invention with water as the balance. The initial pH of the resulting adjuvant comprising solution was measured and adjusted with NaOH or citric acid, if necessary, to yield an adjuvant comprising solution, pH of about 5.6. The solutions were placed in a 35° C. oven and color change was assessed visually (by taking photos) and by measuring L*a*b* values utilizing a conventional colorimeter. L*a*b* values of the solutions were measured and assessed as set forth below.
Enhancement activity of pyrrole-2-carboxylic acid in solution was carried out on the solutions described in Table 2 and the color of the reaction system was detected and assessed with a colorimeter.
Delta L* was used to characterize color change whereby the larger Delta L* value reflects darker coloring. […] Pyrrole-2-carboxylic acid, therefore, is believed to catalyze the DHA/glycine Maillard reaction.

SMILES	color enhancement activity on artificial skin (in words) [1]	DHA enhancement activity / color enhancement in solution (in words) [2]	color quality (delta a*/delta b*, visual examination) in words [1]	DHA enhancement activity / color enhancement in solution (in words) ([2]; listed as 1-H-indole-2-carboxylic acid)
O=C(O)c1ccco1 [2-furoic acid]	color enhancement of artificial skin	–	–	–
COC(=O)c1ccc[nH]1 [methyl-2-pyrrole carboxylate]	–	surprisingly good color enhancement	–	–
Cn1cccc1C(=O)O [1-methyl-2-pyrrolecarboxylic acid]	color enhancement activity; also recorded: excellent DHA enhancer	excellent DHA enhancement activity	more natural color via visual examination; also recorded: better than that of the control at all concentrations tested	–
O=C(CO)CO [DHA, 1,3-dihydroxy-2-propanone, reference compound]	–	–	yellowish	–
O=C(O)c1ccc[nH]1 [pyrrole-2-carboxylic acid]	DHA color enhancement activity at all tested concentrations	significantly enhanced DHA activity at all concentrations tested	longer lasting and more natural color	–
CC(=O)c1ccco1 [2-acetylfuran]	color enhancement of artificial skin	–	–	–
O=C(O)c1cc2ccccc2[nH]1 [1H-indole-2-carboxylic acid]	–	excellent color enhancement	–	excellent coloring properties
CC(=O)c1ccc[nH]1 [2-acetylpyrrole]	color enhancement of artificial skin	surprisingly good color enhancement	–	–
CC(=O)c1cccn1C [2-acetyl-1-methylpyrrole]	color enhancement of artificial skin	surprisingly good color enhancement	–	–
